Results as given in BindingDB's records for doi:10.1021/acs.biochem.6b01020 (University of Delaware, 2017).
Square brackets hold non-standard residues; d marks the D form. Peptide text beside a SMILES is read from it. * marks the point of attachment. C(CF3)3 = FC(F)(F)C(C(F)(F)F)(C(F)(F)F)*; Hyp = O=C(O)[C@@H]1C[C@@H](O)CN1; hSer = N[C@@H](CCO)C(=O)O

Each compound was assayed against T1, Estradiol-bound Estrogen receptor [255-595] (Homo sapiens, UniProt P03372) (assay: Fluorescence Polarization Assay). Settings: pH 7.4; 25 °C.
T1 construct: 255-595
T1 sequence (P03372 whole entry): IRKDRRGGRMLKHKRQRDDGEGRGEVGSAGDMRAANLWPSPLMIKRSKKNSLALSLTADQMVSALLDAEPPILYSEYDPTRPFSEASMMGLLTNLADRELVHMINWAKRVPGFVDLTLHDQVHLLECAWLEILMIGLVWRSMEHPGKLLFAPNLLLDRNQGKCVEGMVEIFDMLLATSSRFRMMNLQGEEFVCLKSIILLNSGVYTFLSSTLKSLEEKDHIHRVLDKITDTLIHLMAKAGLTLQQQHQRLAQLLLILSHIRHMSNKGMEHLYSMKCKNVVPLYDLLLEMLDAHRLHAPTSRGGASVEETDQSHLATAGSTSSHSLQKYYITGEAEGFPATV
Protocol: Peptide concentrations were determined by the absorbance at 492 nm, using a fluorescein extinction coefficient of 83000. Fluorescence polarization assays were conducted in 96-well round-bottom black opaque plates (Costar) using 2-fold serial dilutions of the ERα LBD, to final protein concentrations from 10 to 0.0098 μM, in PBS containing 0.1 mM DTT, 20 μM 17β-estradiol, 0.04 mg/mL BSA, and 100 nM fluorescein-labeled peptide. Solutions were incubated in the dark for 30 min at room temperature before being read on a PerkinElmer Fusion plate reader using a 485 nm fluorescein excitation filter and a 535 nm emission filter with a polarizer.

Compared with `CC[C@H](C)[C@H](NC(=O)[C@H](CCCCN)NC(=O)[C@H](Cc1cnc[nH]1)NC(=O)[C@H](CCCNC(=N)N)NC(=O)[C@H](CCC(=O)O)NC(=O)[C@@H](NC(=O)[C@H](CC(C)C)NC(=O)[C@@H](N)CS)[C@@H](C)O)C(=O)N1C[C@H](OC(C(F)(F)F)(C(F)(F)F)C(F)(F)F)C[C@H]1C(=O)N[C@@H](Cc1cnc[nH]1)C(=O)N[C@@H](CCCNC(=N)N)C(=O)N[C@@H](CC(C)C)C(=O)N[C@@H](CC(C)C)C(=O)N[C@@H](CCC(N)=O)C(=O)N[C@@H](CCC(=O)O)C(=O)O` (H-CLTERHKI[Hyp](C(CF3)3)HRLLQE-OH), `CC(C)C[C@H](NC(=O)[C@H](CC(C)C)NC(=O)[C@H](CCCNC(=N)N)NC(=O)[C@H](Cc1cnc[nH]1)NC(=O)[C@H](CC(C)C)NC(=O)[C@H](CCOC(C(F)(F)F)(C(F)(F)F)C(F)(F)F)NC(=O)[C@H](CCCCN)NC(=O)[C@H](Cc1cnc[nH]1)NC(=O)[C@H](CCCNC(=N)N)NC(=O)[C@H](CCC(=O)O)NC(=O)[C@@H](NC(=O)[C@H](CC(C)C)NC(=O)[C@@H](N)CS)[C@@H](C)O)C(=O)N[C@@H](CCC(N)=O)C(=O)N[C@@H](CCC(=O)O)C(=O)O` [CLTERHK(Hse(C4F9))LHRLLQE] (H-CLTERHK[hSer](C(CF3)3)LHRLLQE-OH) is lower in Kd: greater than 150 µM for the first, 7.1 µM for the second.

First: CC[C@H](C)[C@H](NC(=O)[C@H](CCCCN)NC(=O)[C@H](Cc1cnc[nH]1)NC(=O)[C@H](CCCNC(=N)N)NC(=O)[C@H](CCC(=O)O)NC(=O)[C@@H](NC(=O)[C@H](CC(C)C)NC(=O)[C@@H](N)CS)[C@@H](C)O)C(=O)N[C@@H](CC(C)C)C(=O)N[C@@H](Cc1cnc[nH]1)C(=O)N[C@@H](CCCNC(=N)N)C(=O)N[C@@H](CCOC(C(F)(F)F)(C(F)(F)F)C(F)(F)F)C(=O)N[C@@H](CC(C)C)C(=O)N[C@@H](CCC(N)=O)C(=O)N[C@@H](CCC(=O)O)C(=O)O (H-CLTERHKILHR[hSer](C(CF3)3)LQE-OH)
Second: CC[C@H](C)[C@H](NC(=O)[C@H](CCCCN)NC(=O)[C@H](Cc1cnc[nH]1)NC(=O)[C@H](CCCNC(=N)N)NC(=O)[C@H](CCC(=O)O)NC(=O)[C@@H](NC(=O)[C@H](CC(C)C)NC(=O)[C@@H](N)CS)[C@@H](C)O)C(=O)N[C@H](CCOC(C(F)(F)F)(C(F)(F)F)C(F)(F)F)C(=O)N[C@@H](Cc1cnc[nH]1)C(=O)N[C@@H](CCCNC(=N)N)C(=O)N[C@@H](CC(C)C)C(=O)N[C@@H](CC(C)C)C(=O)N[C@@H](CCC(N)=O)C(=O)N[C@@H](CCC(=O)O)C(=O)O
The Kd of the first is 20-fold lower: 2.2 µM for the first, 43 µM for the second. The first binds more tightly here.

H-CLTERHKILHRLLQE-OH was tested, and the Kd was 1 µM.
